# Measured values published in patent publication US20110224297A1, “Methods of administering prostratin and structural analogs thereof” (priority 2008, published 2011).
# Columns and labels:
# [1] = Stability of prostratin in monkey plasma; assay type: in vitro ADME; details: 1 and 10 mg/ml, RT and 37° C.
# Procedure: (§1) Prostratin is stable in plasma and buffer as well as in the stability formulation (see below) developed for in vivo studies in mice. Stability tests for prostratin in mouse and monkey plasma were done using two concentration (1 and 10 mg/ml) and two temperatures (Room Temperature (RT) and 37° C.). The only loss of drug occurred in mouse plasma after 24 hr incubation at 37° C. This represented only 14% decrease in parent drug peak area over this time frame. Prostratin is stable in PBS (phosphate buffer saline) at pH 2 and pH 7.
# [2] = Stability in PBS (phosphate buffer saline); assay type: physicochemical
# Procedure: as §1
# [3] = In vitro metabolism in rat liver microsomes; assay type: in vitro ADME
# Source text: (§2) In vitro metabolism of prostratin was investigated using mouse, rat, monkey, and human liver microsomes (Gentest). […] Attempts to identify the metabolite by LC/MS/MS were unsuccessful due to the low amounts present in the reaction mixtures (FIG. 1).
# [4] = In vitro metabolism in human liver microsomes; assay type: in vitro ADME
# Source text: as §2
# [5] = system: latently infected U1 cells; experiment: HIV expression (reverse transcriptase activity in supernatant) in latently infected U1 cells; assay type: cell-based
# Procedure: The effect of prostratin on virus replication was assessed in latently infected ACH-2 and U1 cells by measuring the accumulation of reverse transcriptase activity in the supernatant of stimulated cells (Gustafson et al., 1992, J Med Chem 35(11): 1978-86).
# Briefly, 4×10^4 cells in 100 μl fresh medium were mixed with another 100 μl of medium with or without prostratin or PMA in a 96-well microtiter plate. Plates were incubated for 24-72 h at 37° C. Following incubation, supernatants were harvested, centrifuged (to remove any residual cells) and tested for reverse transcriptase activity as previously described (Gustafson et al., 1992, J Med Chem 35(11): 1978-86).
# In these experiments, two concentrations of cells were tested (40,000 and 100,000 cells/well). It is noteworthy that the basal levels of reverse transcriptase activities were much higher in ACH-2 cells than in U1 cells.
# [6] = system: resting CD4+ T cells derived from HIV positive patients; experiment: Induction of HIV-1 expression in resting CD4+ T cells from HIV positive patients on HAART (p24, co-culture); assay type: cell-based, human
# Procedure: The ability of prostratin to induce HIV-1 expression in cultures of highly purified resting CD4+ T cells derived from six HIV positive patients on HAART therapy with undetectable plasma viral load (<50 copies/ml) and CD4 cell counts above 350 cells/mm^3 was evaluated. PBMCs were separated using Ficol Hypaque gradient and resting CD4+ T cells were purified using commercially available CD4+ T cell isolation kit (Miltenyi Biotec) Immediately after purification, resting CD4+ T cells were treated for 3 days with two antiretrovirals to which the patient had not previously been exposed. Antiretrovirals were used at concentrations 10 times the 50% inhibitory concentration for wild-type HIV-1 to ensure elimination of any actively replicating virus. Three days after in vitro incubation with antiretrovirals, cells were washed and incubated for 5 h, 24 h, or 48 h with prostratin (50-500 ng/ml), in the absence or presence of 1 mM valproic acid (sodium salt, SIGMA), 10 μg/ml PHA (SIGMA), 50 U IL-2/ml (AIDS depository of reagents, NIH), or in the absence of drugs. At the end of each incubation period, cells were co-cultured with CD8-depleted PBMCs from healthy donors. P24 was measured at days 0, 4, 7, 14, 21, 28, 35 and 42 days.
# [7] = system: Escherichia coli tester strain WP2uvrA; experiment: Escherichia coli/mammalian-microsome reverse mutation assay with confirmatory assay; assay type: cell-based; details: 100 to 5000 μg per plate; presence or absence of S9
# Source text: The objective of this study was to evaluate the test article, prostratin, for the ability to induce reverse mutations either in the presence or absence of mammalian microsomal enzymes at 1) the histidine locus in the genome of several strains of Salmonella typhimurium and at 2) the tryptophan locus of Escherichia coli tester strain WP2uvrA.
# The doses tested in the mutagenicity assay were selected based on the results of a dose range finding study using tester strains TA100 and WP2uvrA and ten doses of test article ranging from 6.67 to 5000 μg per plate, one plate per dose, both in the presence and absence of S9 mix.
# The tester strains used in the mutagenicity assay were Salmonella typhimurium tester strains TA98, TA100, TA1535, and TA1537 and Escherichia coli tester strain WP2uvrA. The assay was conducted with five doses of test article in both the presence and absence of S9 mix along with concurrent vehicle and positive controls using three plates per dose. The doses tested were 100, 333, 1000, 3330, and 5000 μg per plate in both the presence and absence of S9 mix. The results of the initial mutagenicity assay were confirmed in an independent experiment.
# [8] = Single-dose range-finding study in rats; assay type: in vivo, Fisher rats; details: male, Fisher, rat, in vivo, intravenous; rats, single bolus dose; read-out: Maximum Tolerated Dose (MTD)
# Procedure: (§3) A single bolus dose of prostratin (0, 0.05, 0.1, 0.2, 0.4, and 0.8 mg/kg which correspond to 0, 0.3, 0.6, 1.2, 2.4, and 4.8 mg/m^2) was administered to Fisher rats (3 males/group) to determine the maximally tolerated dose and relative drug toxicity. […] Clinical signs of toxicity included decreased activity, prostration, tremors, and altered respiratory rate (decreased in some cases, increased in others). […] In the 0.4 mg/kg dose group, ALT and AST serum levels were 2- and 3-fold higher, respectively, than group mean ALT and AST values for control rats, and potassium level was decreased in 61% of the value obtained for control group animals. […] The Maximum Tolerated Dose (MTD) in rats is between 0.2-0.4 mg/kg dose of prostratin.
# Fisher rats = experiment: Single-dose range-finding study in rats; assay type: in vivo; details: for mortality (died on Day 1 or Day 2): male Fisher rats
# Procedure: as §3
# rhesus macaque monkeys = experiment: Preliminary pharmacokinetic study in monkeys (mortality); assay type: in vivo; details: intravenous bolus 0.8 mg/kg; respiratory failure shortly after injection
# Procedure: During a preliminary pharmacokinetic study, rhesus macaque monkeys were administered an intravenous bolus of prostratin at 0.4 mg/kg and 0.8 mg/kg. The monkey in 0.8 mg/kg died due a respiratory failure shortly after injection. Plasma samples from these monkeys were sent to NIH and plasma concentration of prostratin was measure along with other samples at NIH using the LC/MS/MS assay.
# PBMCs = details: alone or in conjunction with other activators; cited from earlier work
smiles,measurement,setting,value
"CC(=O)O[C@@]12C[C@@H](C)[C@@]3(O)[C@@H](C=C(CO)C[C@]4(O)C(=O)C(C)=C[C@@H]34)[C@@H]1C2(C)C [prostratin, 12-deoxyphorbol 13-acetate]",stability in plasma,[1],stable
same,stability in PBS,[2]; pH 2,stable
same,stability in PBS,[2]; pH 7,stable
same,metabolism (time-dependent loss of parent compound),[3],substantially less
same,metabolism (time-dependent loss of parent compound),[4],substantially less
same,exposure time needed to observe acceptable reverse transcriptase activity,[5],at least 48 h
same,lowest dose to get a reliable increase in reverse transcriptase activity,[5],50 ng/mL
same,short incubation (pulsed stimulation) time leading to detectable reverse transcriptase activity,[5]; none after 1 h and 4 h,6 h
same,HIV-1 expression in resting T cells,[6]; 50 ng/ml,"HIV-1 activation events, although with lower frequency"
same,time of co-culture with CD8-depleted PBMC after which robust HIV replication was observed,[6]; 24 h with 150 ng/ml,2-4 weeks
same,HIV-1 expression in resting T cells,[6]; ex-vivo treatment for 24 h with 150 ng/ml,efficient activation of the latent reservoir
same,mean number of revertants per plate,[7],did not cause a positive increase
same,MTD,[8],0.2 to 0.4 mg/kg
same,albumin (ALB) level relative to control,Fisher rats; 0.2 mg/kg dose group,88%
same,ALT serum level versus control,Fisher rats; 0.4 mg/kg dose group,2 fold
same,AST serum level versus control,Fisher rats; 0.4 mg/kg dose group,3 fold
same,albumin (ALB) level relative to control,Fisher rats; 0.4 mg/kg dose group,76%
same,potassium level relative to control,Fisher rats; 0.4 mg/kg dose group,61%
same,reversibility of adverse events,"Fisher rats; PLT, ALT, AST, ALB within normal range by day 8",reversible
same,increase in neutrophile counts,"Fisher rats; day 3, 0.4 mg/kg dose group",1.7 fold
same,decrease in platelet (PLT) counts compared to control,"Fisher rats; day 3, 0.4 and 0.2 mg/kg dose groups",62-68%
same,mortality (died on Day 1 or Day 2),Fisher rats; single bolus 0.4 mg/kg,two of the three
same,mortality (died on Day 1 or Day 2),Fisher rats; single bolus 0.8 mg/kg,3/3
same,mortality,rhesus macaque monkeys,died
same,individuals on suppressive HAART whose PBMCs showed stimulated HIV-1 production,PBMCs,4 out of 6
